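Each compound was tested at five concentrations against cells in 96-well plates for 48 hours. GI50 marks 50% less growth. At the TGI there is no net growth.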
How the values were obtained:
Experiment in all cases: NCI-60 cell line screen, 48 h
HOP-92 NSCLC = system: HOP-92 NSCLC
HCT-15 colon = system: HCT-15 colon
SK-MEL-28 melanoma = system: SK-MEL-28 melanoma
EKVX NSCLC = system: EKVX NSCLC
K-562 leukemia = system: K-562 leukemia
SK-OV-3 ovarian = system: SK-OV-3 ovarian
SF-539 CNS = system: SF-539 CNS
SNB-75 CNS = system: SNB-75 CNS
DU-145 prostate = system: DU-145 prostate
HCC-2998 colon = system: HCC-2998 colon
RXF 393 renal = system: RXF 393 renal
786-0 renal = system: 786-0 renal
OVCAR-5 ovarian = system: OVCAR-5 ovarian
OVCAR-4 ovarian = system: OVCAR-4 ovarian
HL-60(TB) leukemia = system: HL-60(TB) leukemia
UO-31 renal = system: UO-31 renal
SNB-19 CNS = system: SNB-19 CNS
KM12 colon = system: KM12 colon
MDA-MB-231 breast = system: MDA-MB-231 breast
MCF7 breast = system: MCF7 breast
RPMI-8226 leukemia = system: RPMI-8226 leukemia
SN12C renal = system: SN12C renal
CCRF-CEM leukemia = system: CCRF-CEM leukemia
UACC-257 melanoma = system: UACC-257 melanoma
HCT-116 colon = system: HCT-116 colon
SF-295 CNS = system: SF-295 CNS
A498 renal = system: A498 renal
SK-MEL-5 melanoma = system: SK-MEL-5 melanoma
MDA-MB-435 = system: MDA-MB-435
NCI/ADR-RES ovarian = system: NCI/ADR-RES ovarian
ACHN renal = system: ACHN renal
UACC-62 melanoma = system: UACC-62 melanoma
CAKI-1 renal = system: CAKI-1 renal
PC-3 prostate = system: PC-3 prostate
TK-10 renal = system: TK-10 renal
BT-549 breast = system: BT-549 breast
HOP-62 NSCLC = system: HOP-62 NSCLC
HT29 colon = system: HT29 colon
T-47D breast = system: T-47D breast
HS 578T breast = system: HS 578T breast
A549 NSCLC = system: A549 NSCLC
SW-620 colon = system: SW-620 colon
U251 CNS = system: U251 CNS
MOLT-4 leukemia = system: MOLT-4 leukemia
NCI-H226 lung = system: NCI-H226 lung
SF-268 CNS = system: SF-268 CNS
IGROV1 ovarian = system: IGROV1 ovarian
COLO 205 colon = system: COLO 205 colon
NCI-H460 lung = system: NCI-H460 lung
OVCAR-8 ovarian = system: OVCAR-8 ovarian
NCI-H522 lung = system: NCI-H522 lung
NCI-H23 lung = system: NCI-H23 lung
M14 melanoma = system: M14 melanoma

COC[C@]12CCC(C)(C)C[C@H]1C1=CC[C@@H]3[C@@]4(C)CCCNC(C)(C)[C@@H]4CC[C@@]3(C)[C@]1(C)CC2
GI50 (HOP-92 NSCLC): 1.17 µM
TGI (HOP-92 NSCLC): 2.58 µM
GI50 (HCT-15 colon): 1.41 µM
TGI (HCT-15 colon): 2.87 µM
GI50 (SK-MEL-28 melanoma): 1.67 µM
TGI (SK-MEL-28 melanoma): 3.07 µM
GI50 (EKVX NSCLC): 1.64 µM
TGI (EKVX NSCLC): 3.12 µM
GI50 (K-562 leukemia): 0.35 µM
TGI (K-562 leukemia): 4.65 µM
GI50 (SK-OV-3 ovarian): 1.8 µM
TGI (SK-OV-3 ovarian): 3.39 µM
GI50 (SF-539 CNS): 1.56 µM
TGI (SF-539 CNS): 3.05 µM
GI50 (SNB-75 CNS): 1.53 µM
TGI (SNB-75 CNS): 3.41 µM
GI50 (DU-145 prostate): 1.81 µM
TGI (DU-145 prostate): 3.37 µM
GI50 (HCC-2998 colon): 1.31 µM
TGI (HCC-2998 colon): 2.76 µM
GI50 (RXF 393 renal): 1.37 µM
TGI (RXF 393 renal): 2.88 µM
GI50 (786-0 renal): 1.61 µM
TGI (786-0 renal): 3.3 µM
GI50 (OVCAR-5 ovarian): 1.67 µM
TGI (OVCAR-5 ovarian): 3.13 µM
GI50 (OVCAR-4 ovarian): 1.7 µM
TGI (OVCAR-4 ovarian): 3.34 µM
GI50 (HL-60(TB) leukemia): 1.43 µM
TGI (HL-60(TB) leukemia): 3.87 µM
GI50 (UO-31 renal): 1.41 µM
TGI (UO-31 renal): 2.79 µM
GI50 (SNB-19 CNS): 1.76 µM
TGI (SNB-19 CNS): 3.3 µM
GI50 (KM12 colon): 1.79 µM
TGI (KM12 colon): 3.48 µM
GI50 (MDA-MB-231 breast): 1.89 µM
TGI (MDA-MB-231 breast): 3.62 µM
GI50 (MCF7 breast): 1.25 µM
TGI (MCF7 breast): 2.82 µM
GI50 (RPMI-8226 leukemia): 1.31 µM
TGI (RPMI-8226 leukemia): 3.65 µM
GI50 (SN12C renal): 1.51 µM
TGI (SN12C renal): 3.07 µM
GI50 (CCRF-CEM leukemia): 1.26 µM
TGI (CCRF-CEM leukemia): 3.19 µM
GI50 (UACC-257 melanoma): 1.91 µM
TGI (UACC-257 melanoma): 3.82 µM
GI50 (HCT-116 colon): 1.09 µM
TGI (HCT-116 colon): 2.48 µM
GI50 (SF-295 CNS): 1.73 µM
TGI (SF-295 CNS): 3.21 µM
GI50 (A498 renal): 1.71 µM
TGI (A498 renal): 3.23 µM
GI50 (SK-MEL-5 melanoma): 1.58 µM
TGI (SK-MEL-5 melanoma): 3.05 µM
GI50 (MDA-MB-435): 1.66 µM
TGI (MDA-MB-435): 3.13 µM
GI50 (NCI/ADR-RES ovarian): 1.73 µM
TGI (NCI/ADR-RES ovarian): 3.48 µM
GI50 (ACHN renal): 1.73 µM
TGI (ACHN renal): 3.12 µM
GI50 (UACC-62 melanoma): 1.62 µM
TGI (UACC-62 melanoma): 3.12 µM
GI50 (CAKI-1 renal): 1.82 µM
TGI (CAKI-1 renal): 3.56 µM
GI50 (PC-3 prostate): 1.31 µM
TGI (PC-3 prostate): 2.64 µM
GI50 (TK-10 renal): 1.81 µM
TGI (TK-10 renal): 3.53 µM
GI50 (BT-549 breast): 1.68 µM
TGI (BT-549 breast): 3.11 µM

ClC(Cl)c1nc(-c2cccs2)n2nc(-c3ccccc3)cc2n1
GI50 (HOP-62 NSCLC): 0.419 µM
TGI (HOP-62 NSCLC): 2.99 µM
GI50 (HOP-92 NSCLC): 0.444 µM
TGI (HOP-92 NSCLC): 2.48 µM
GI50 (HCT-15 colon): 1.06 µM
TGI (HCT-15 colon): 3.63 µM
GI50 (HT29 colon): 0.355 µM
TGI (HT29 colon): 1.75 µM
GI50 (SK-MEL-28 melanoma): 1.69 µM
TGI (SK-MEL-28 melanoma): 3.22 µM
GI50 (K-562 leukemia): 2.13 µM
TGI (K-562 leukemia): > 100 µM
GI50 (T-47D breast): 1.51 µM
TGI (T-47D breast): 5.72 µM
GI50 (SK-OV-3 ovarian): 1.89 µM
TGI (SK-OV-3 ovarian): 6.66 µM
GI50 (HS 578T breast): 1.6 µM
TGI (HS 578T breast): 4.71 µM
GI50 (SF-539 CNS): 1.1 µM
TGI (SF-539 CNS): 2.94 µM
GI50 (A549 NSCLC): 0.68 µM
TGI (A549 NSCLC): 2.73 µM
GI50 (DU-145 prostate): 0.293 µM
TGI (DU-145 prostate): 0.77 µM
GI50 (HCC-2998 colon): 0.464 µM
TGI (HCC-2998 colon): 1.74 µM
GI50 (RXF 393 renal): 0.477 µM
TGI (RXF 393 renal): 1.69 µM
GI50 (786-0 renal): 2.37 µM
TGI (786-0 renal): > 100 µM
GI50 (OVCAR-5 ovarian): 1.74 µM
TGI (OVCAR-5 ovarian): 5.12 µM
GI50 (OVCAR-4 ovarian): 2.02 µM
TGI (OVCAR-4 ovarian): 5.06 µM
GI50 (SW-620 colon): 0.681 µM
TGI (SW-620 colon): 3.49 µM
GI50 (HL-60(TB) leukemia): 0.267 µM
TGI (HL-60(TB) leukemia): 1.31 µM
GI50 (UO-31 renal): 1.19 µM
TGI (UO-31 renal): 4.52 µM
GI50 (SNB-19 CNS): 0.635 µM
TGI (SNB-19 CNS): 3.71 µM
GI50 (KM12 colon): 2.48 µM
TGI (KM12 colon): 8.34 µM
GI50 (MDA-MB-231 breast): 0.5 µM
TGI (MDA-MB-231 breast): 2.75 µM
GI50 (U251 CNS): 0.326 µM
TGI (U251 CNS): 1.82 µM
GI50 (MOLT-4 leukemia): 2.82 µM
TGI (MOLT-4 leukemia): > 100 µM
GI50 (NCI-H226 lung): > 100 µM
TGI (NCI-H226 lung): > 100 µM
GI50 (MCF7 breast): 0.425 µM
TGI (MCF7 breast): 3.53 µM
GI50 (RPMI-8226 leukemia): 0.472 µM
TGI (RPMI-8226 leukemia): 2.56 µM
GI50 (SN12C renal): > 100 µM
TGI (SN12C renal): > 100 µM
GI50 (CCRF-CEM leukemia): 5.92 µM
TGI (CCRF-CEM leukemia): > 100 µM
GI50 (UACC-257 melanoma): 2.4 µM
TGI (UACC-257 melanoma): 5.68 µM
GI50 (HCT-116 colon): 1.3 µM
TGI (HCT-116 colon): 6.87 µM
GI50 (SF-295 CNS): 0.801 µM
TGI (SF-295 CNS): 3.39 µM
GI50 (A498 renal): 1.25 µM
TGI (A498 renal): 2.53 µM
GI50 (SF-268 CNS): 1.6 µM
TGI (SF-268 CNS): 5.18 µM
GI50 (IGROV1 ovarian): 2.65 µM
TGI (IGROV1 ovarian): > 100 µM
GI50 (COLO 205 colon): 0.476 µM
TGI (COLO 205 colon): 2.07 µM
GI50 (SK-MEL-5 melanoma): > 100 µM
TGI (SK-MEL-5 melanoma): > 100 µM
GI50 (MDA-MB-435): 1.47 µM
TGI (MDA-MB-435): 2.99 µM
GI50 (NCI/ADR-RES ovarian): 0.912 µM
TGI (NCI/ADR-RES ovarian): 4.09 µM
GI50 (ACHN renal): 0.274 µM
TGI (ACHN renal): 1.05 µM
GI50 (NCI-H460 lung): 0.299 µM
TGI (NCI-H460 lung): 0.974 µM
GI50 (OVCAR-8 ovarian): 1.15 µM
TGI (OVCAR-8 ovarian): > 100 µM
GI50 (CAKI-1 renal): 1.13 µM
TGI (CAKI-1 renal): 4.01 µM
GI50 (NCI-H522 lung): > 100 µM
TGI (NCI-H522 lung): > 100 µM
GI50 (NCI-H23 lung): 1.47 µM
TGI (NCI-H23 lung): 4.44 µM
GI50 (M14 melanoma): 4.35 µM
TGI (M14 melanoma): > 100 µM
GI50 (PC-3 prostate): 1.18 µM
TGI (PC-3 prostate): 3.75 µM
GI50 (TK-10 renal): 3.23 µM
TGI (TK-10 renal): 6.25 µM
GI50 (BT-549 breast): 8.73 µM
TGI (BT-549 breast): > 100 µM

Source: PubChem BioAssay (NCI)
